Source: patent US8883801B2, “Substituted pyrazolo[1,5-a]pyrimidines as mTOR inhibitors” (Merck Sharp & Dohme Corp., priority 2010, dated 2014)
Read-outs that look alike come from different tables or passages of the source.

Assays:
human mTOR enzyme = human mTOR enzyme (Homo sapiens, UniProt P42345); test: HTRF mTOR enzyme (kinase) assay; assay type: biochemical; conditions: 5 μM ATP, 0.2 μM GST-S6K, read-out: hMTOR IC50
[1] = test system: mTORC2 activity: phosphorylated AKT Ser473 (pAKT S473) in PC3 cells; test: mTOR target engagement assay, immunofluorescent cell-based, mTORC2 readout; conditions: Homo sapiens, PC-3, 1.5 h, 90 min treatment
Outline: (§1)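 Read-out is immunofluorescence intensity, normalized to DMSO-only wells and fitted to a sigmoidal Hill equation for IC50. The mTORC1 arm probes phospho-4E-BP1 Thr37/46 and the mTORC2 arm phospho-AKT Ser473.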

[2] = test system: mTORC1 activity: phosphorylated 4E-BP1 Thr37/46 (p4E-BP1 Thr37/46) in PC3 cells; test: mTOR target engagement assay, immunofluorescent cell-based, mTORC1 readout; conditions: Homo sapiens, PC-3, 1.5 h, 90 min treatment, read-out: P4EBP1 IC50
Outline: as §1

Chain of human mTOR enzyme (P42345 1360-2549 limits assumed): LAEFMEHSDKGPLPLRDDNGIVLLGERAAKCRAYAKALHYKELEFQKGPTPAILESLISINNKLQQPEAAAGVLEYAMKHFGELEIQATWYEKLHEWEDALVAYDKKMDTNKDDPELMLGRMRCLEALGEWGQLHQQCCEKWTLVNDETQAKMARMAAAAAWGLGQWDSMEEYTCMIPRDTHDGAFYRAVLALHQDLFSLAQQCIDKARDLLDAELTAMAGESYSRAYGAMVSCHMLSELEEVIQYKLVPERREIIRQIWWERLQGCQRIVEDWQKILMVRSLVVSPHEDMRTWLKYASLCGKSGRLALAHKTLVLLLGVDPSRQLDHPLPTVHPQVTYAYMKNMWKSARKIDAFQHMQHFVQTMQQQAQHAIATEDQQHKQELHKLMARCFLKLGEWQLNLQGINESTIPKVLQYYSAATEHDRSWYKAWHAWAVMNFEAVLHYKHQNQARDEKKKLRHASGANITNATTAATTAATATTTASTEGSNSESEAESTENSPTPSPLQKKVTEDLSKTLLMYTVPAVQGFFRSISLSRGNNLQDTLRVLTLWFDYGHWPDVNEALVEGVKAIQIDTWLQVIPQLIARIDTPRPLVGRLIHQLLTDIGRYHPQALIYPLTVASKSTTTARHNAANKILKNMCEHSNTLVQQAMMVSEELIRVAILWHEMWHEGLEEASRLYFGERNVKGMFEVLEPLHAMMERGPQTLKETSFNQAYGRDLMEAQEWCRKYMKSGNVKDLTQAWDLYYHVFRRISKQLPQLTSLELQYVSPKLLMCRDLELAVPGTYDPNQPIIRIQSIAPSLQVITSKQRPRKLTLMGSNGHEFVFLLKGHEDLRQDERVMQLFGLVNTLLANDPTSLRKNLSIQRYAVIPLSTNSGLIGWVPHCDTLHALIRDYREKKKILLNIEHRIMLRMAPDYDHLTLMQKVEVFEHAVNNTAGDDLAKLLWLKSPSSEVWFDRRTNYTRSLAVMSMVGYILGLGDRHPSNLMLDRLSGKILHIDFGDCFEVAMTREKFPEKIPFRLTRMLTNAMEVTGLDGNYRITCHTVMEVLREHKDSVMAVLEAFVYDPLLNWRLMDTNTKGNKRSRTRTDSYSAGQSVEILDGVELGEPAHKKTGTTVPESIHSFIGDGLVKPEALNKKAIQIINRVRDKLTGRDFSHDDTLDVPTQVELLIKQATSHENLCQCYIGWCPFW

Structure (SMILES)	IC50 (human mTOR enzyme; rated class)	IC50 ([1]; rated class)	IC50 ([2]; rated class)	IC50 (human mTOR enzyme; numeric value)	IC50 ([1]; numeric value)	IC50 ([2]; numeric value)
COCCO[C@]1(C(=O)NOC)CC[C@@H](c2nc3c(-c4ccc(-c5ccccc5)nc4)cnn3c(N)c2S(C)(=O)=O)CC1 [Compound 105, (1R,4R)-4-(7-amino-6-(methylsulfonyl)-3-(6-phenylpyridin-3-yl)pyrazolo[1,5-a]pyrimidin-5-yl)-N-methoxy-1-(2-methoxyethoxy)-cyclohexane-carboxamide]	1 to 100 nM	1 to 100 nM	100 to 1000 nM	–	–	–
COCCO[C@]1(c2nnc(N)o2)CC[C@@H](c2nc3c(-c4cnn(-c5ccccc5)c4)cnn3c(N)c2S(C)(=O)=O)CC1 [Compound 108, 5-((1R,4R)-4-(7-amino-6-(methylsulfonyl)-3-(1-phenyl-1H-pyrazol-4-yl)pyrazolo[1,5-a]pyrimidin-5-yl)-1-(2-methoxyethoxy)cyclohexyl)-1,3,4-oxadiazol-2-amine]	1 to 100 nM	1 to 100 nM	100 to 1000 nM	–	–	–
COCCO[C@]1(c2nnc(C)o2)CC[C@@H](c2nc3c(-c4cnn(-c5ccccc5)c4)cnn3c(N)c2S(C)(=O)=O)CC1 [Compound 109]	1 to 100 nM	100 to 1000 nM	2000 to 5000 nM	–	–	–
COCCO[C@]1(C(N)=O)CC[C@@H](c2nc3c(-c4cnn(-c5ccccc5)c4)cnn3c(N)c2S(C)(=O)=O)CC1 [Compound 110, (1R,4R)-4-(7-amino-6-(methylsulfonyl)-3-(1-phenyl-1H-pyrazol-4-yl)pyrazolo[1,5-a]pyrimidin-5-yl)-1-(2-methoxyethoxy)cyclohexanecarboxamide]	1 to 100 nM	1 to 100 nM	1 to 100 nM	–	–	–
COCCO[C@]1(C(N)=O)CC[C@@H](c2nc3c(-c4ccc(-c5ccccc5)nc4)cnn3c(N)c2S(C)(=O)=O)CC1 [Compound 111]	–	–	–	1 nM	48 nM	141 nM
COCCO[C@]1(C(N)=O)CC[C@@H](c2nc3c(-c4ccc(-c5ncc[nH]5)nc4)cnn3c(N)c2C(C)=O)CC1 [Compound 112, (1R,4R)-4-(3-(6-(1H-imidazol-2-yl)pyridin-3-yl)-6-acetyl-7-aminopyrazolo[1,5-a]pyrimidin-5-yl)-1-(2-methoxyethoxy)cyclohexanecarboxamide]	1 to 100 nM	1 to 100 nM	1 to 100 nM	–	–	–
COCCO[C@]1(C(N)=O)CC[C@H](c2nc3c(-c4ccc(-c5ncc[nH]5)nc4)cnn3c(N)c2C(C)=O)CC1 [Compound 113, (1S,4S)-4-(3-(6-(1H-imidazol-2-yl)pyridin-3-yl)-6-acetyl-7-aminopyrazolo[1,5-a]pyrimidin-5-yl)-1-(2-methoxyethoxy) cyclohexanecarboxamide]	1 to 100 nM	100 to 1000 nM	100 to 1000 nM	–	–	–
COCCO[C@]1(C(=O)NO)CC[C@H](c2nc3c(-c4ccc(-c5ncc[nH]5)nc4)cnn3c(N)c2C(C)=O)CC1 [Compound 114]	1 to 100 nM	100 to 1000 nM	100 to 1000 nM	–	–	–
COCCO[C@]1(C(=O)NO)CC[C@@H](c2nc3c(-c4ccc(-c5ncc[nH]5)nc4)cnn3c(N)c2C(C)=O)CC1 [Compound 115, (1R,4R)-(3-(6-(1H-imidazol-2-yl)pyridin-3-yl)-6-acetyl-7-aminopyrazolo[1,5-a]pyrimidin-5-yl)-N-hydroxy-1-(2-methoxyethoxy)cyclohexane carboxamide]	1 to 100 nM	1 to 100 nM	1 to 100 nM	–	–	–
COCCO[C@]1(C(N)=O)CC[C@@H](c2nc3c(-c4ccc(-c5ncc[nH]5)nc4)cnn3c(N)c2S(C)(=O)=O)CC1 [Compound 116]	1 to 100 nM	100 to 1000 nM	1 to 100 nM	–	–	–
COCCO[C@]1(C#N)CC[C@@H](c2nc3c(-c4cnn(-c5ccccc5)c4)cnn3c(N)c2S(C)(=O)=O)CC1 [Compound 117, (1R,4R)-4-(7-amino-6-(methylsulfonyl)-3-(1-phenyl-1H-pyrazol-4-yl)pyrazolo[1,5-a]pyrimidin-5-yl)-1-(2-methoxyethoxy)cyclohexanecarbonitrile]	1 to 100 nM	100 to 1000 nM	1000 to 2000 nM	–	–	–
COCCO[C@]1(c2nnn[nH]2)CC[C@@H](c2nc3c(-c4cnn(-c5ccccc5)c4)cnn3c(N)c2S(C)(=O)=O)CC1 [Compound 118, 5-((1R,4R)-4-(2-methoxyethoxy)-4-(1H-tetrazol-5-yl)cyclohexyl)-6-(methylsulfonyl)-3-(1-phenyl-1H-pyrazol-4-yl)pyrazolo[1,5-a]pyrimidin-7-amine]	1 to 100 nM	100 to 1000 nM	100 to 1000 nM	–	–	–

Results, then the compound that gave them:

IC50 (human mTOR enzyme; rated class)	IC50 ([1]; rated class)	IC50 ([2]; rated class)	IC50 (human mTOR enzyme; numeric value)	IC50 ([1]; numeric value)	IC50 ([2]; numeric value)	Structure (SMILES)
1 to 100 nM	1000 to 2000 nM	2000 to 5000 nM	–	–	–	COCCO[C@]1(c2nnn[nH]2)CC[C@@H](c2nc3c(-c4ccc(-c5ccccc5)nc4)cnn3c(N)c2S(C)(=O)=O)CC1 [Compound 119]
1 to 100 nM	100 to 1000 nM	100 to 1000 nM	–	–	–	COCCO[C@]1(C(=N)N)CC[C@@H](c2nc3c(-c4cnn(-c5ccccc5)c4)cnn3c(N)c2S(C)(=O)=O)CC1 [Compound 120, (1R,4R)-4-(7-amino-6-(methylsulfonyl)-3-(1-phenyl-1H-pyrazol-4-yl)pyrazolo[1,5-a]pyrimidin-5-yl)-1-(2-methoxyethoxy)cyclohexanecarboximidamide]
1 to 100 nM	100 to 1000 nM	100 to 1000 nM	–	–	–	COCCO[C@]1(c2noc(=O)[nH]2)CC[C@@H](c2nc3c(-c4cnn(-c5ccccc5)c4)cnn3c(N)c2S(C)(=O)=O)CC1 [Compound 121, 3-((1R,4R)-4-(7-amino-6-(methylsulfonyl)-3-(1-phenyl-1H-pyrazol-4-yl)pyrazolo[1,5-a]pyrimidin-5-yl)-1-(2-methoxyethoxy)cyclohexyl)-1,2,4-oxadiazol-5(4H)-one]
1 to 100 nM	1 to 100 nM	1 to 100 nM	–	–	–	COCCO[C@]1(C(=O)c2nnc[nH]2)CC[C@@H](c2nc3c(-c4cnn(-c5ccccc5)c4)cnn3c(N)c2S(C)(=O)=O)CC1 [Compound 122, ((1R,4R)-4-(7-amino-6-(methylsulfonyl)-3-(1-phenyl-1H-pyrazol-4-yl)pyrazolo[1,5-a]pyrimidin-5-yl)-1-(2-methoxyethoxy)cyclohexyl)(4H-1,2,4-triazol-3-yl)methanone]
1 to 100 nM	1 to 100 nM	1 to 100 nM	–	–	–	COCCO[C@]1(C(=O)c2nnc[nH]2)CC[C@@H](c2nc3c(-c4ccc(-c5ccccc5)nc4)cnn3c(N)c2S(C)(=O)=O)CC1 [Compound 125, ((1R,4R)-4-(7-amino-6-(methylsulfonyl)-3-(6-phenylpyridin-3-yl)pyrazolo[1,5-a]pyrimidin-5-yl)-1-(2-methoxyethoxy)cyclohexyl)(4H-1,2,4-triazol-3-yl)methanone]
1 to 100 nM	100 to 1000 nM	1000 to 2000 nM	–	–	–	COCCO[C@]1(C(=O)c2nnc[nH]2)CC[C@@H](c2cc(N)n3ncc(-c4ccc(-c5ccccc5)nc4)c3n2)CC1 [Compound 126, ((1R,4R)-4-(7-amino-3-(6-phenylpyridin-3-yl)pyrazolo[1,5-a]pyrimidin-5-yl)-1-(2-methoxyethoxy)cyclohexyl)(4H-1,2,4-triazol-3-yl)methanone]
1 to 100 nM	100 to 1000 nM	100 to 1000 nM	–	–	–	COCCO[C@]1(c2nnc[nH]2)CC[C@@H](c2nc3c(-c4cnn(-c5ccccc5)c4)cnn3c(N)c2S(C)(=O)=O)CC1 [Compound 127, 5-((1R,4R)-4-(2-methoxyethoxy)-4-(4H-1,2,4-triazol-3-yl)cyclohexyl)-6-(methylsulfonyl)-3-(1-phenyl-1H-pyrazol-4-yl)pyrazolo[1,5-a]pyrimidin-7-amine]
